Measurements taken from patent EP2292225A1 (priority 1997, dated 1998).

Key:
[1] = tested on: Vascular smooth muscle cells (BO54); test: Scratch assay of smooth muscle cell migration; format: cell-based, baboon; parameters: key: - = no migration; +1 = minimal; +2 = mild; +3 = moderate; +4 = marked (maximum density; limit of cell contact inhibition) migration; details: for Migration Grade in an Undisturbed Region of the Well / Migration Grade in the Cleared Area of the Well: Day 1/3/6/8/10 = r5/r7/r9/r11/r13; for morphological Toxicity Grade: Day 1/3/6/8/10 = r6/r8/r10/r12/r14, listed as CY[…]
Method: Scratch assays to determine the extent of smooth muscle cell migration inhibition by cytochalasin B were performed in accordance with the following protocol: • Vascular smooth muscle cells (BO54) were derived from explants of baboon aortic smooth muscle, as described in Example 10. The cells were grown in flat bottom, six well tissue culture plates, which hold about 5 ml of medium. The vascular smooth muscle cells were plated at 200,000 cells/well and placed at 37°C in a humidified 5% CO2 incubator for 18 hours. The wells were then scratched with a sterile portion of a single edge razor blade that was held by clamp or pliers and was brought aseptically into contact with the bottom of the well at a 90° angle. The cells from a small area along the scratch were removed by a sterile cotton tipped applicator while the blade was in contact with the bottom of the well. After incubation, the presence of cells in the "scratched" area is indicative of cell migration across the scratch line.
Briefly, a stock solution of cytochalasin B (Sigma Chemical Co.) in dimethyl sulfoxide (DMSO) at 1 mg/ml was prepared. Test dilutions of cytochalasin B or control medium were added. Each experiment included two sets of plates: A set: Test agent exposure for 1, 3, 6, 8 and 10 days only; and B set: Test agent exposure for 1, 3, 6, 8 and 10 days, followed by a seven day recovery time with control medium. Both sets of plates were fixed (10% formalin in PBS) and stained (0.02% crystal violet) at the end of the timed exposures. Test concentrations for cytochalasin B were 1, 0.1 and 0.01 µg/ml, and a negative medium control was included. Fresh medium and drug were supplied 3 times per week.
In this Table, "M" indicates Migration Grade, wherein - = no migration; +1 = minimal; +2 = mild; +3 = moderate; and +4 = marked (maximum density; limit of cell contact inhibition) migration of vascular smooth muscle cells into the cleared area adjacent to the scratch. In this Table, "T" denotes a morphological Toxicity Grade, wherein - = no toxicity; +1 = minimal; +2 = mild; +3 = moderate; and +4 = marked toxicity. The migration results are expressed as "Grade in the Cleared Area of the Well / Grade in an Undisturbed Region of the Well." The toxicity values represent a grade for all cells in each well.

left carotid artery = test: Inter-arterial infusion of crystals after balloon trauma (scintillation, autoradiography, morphometry); format: in vivo, Sprague-Dawley rats; details: for present over the treated length of artery: 1 mg crystalline in 300 ml vehicle
Method: Another study employed twenty, male, Sprague-Dawley rats. The rats underwent balloon trauma to their left carotid artery, followed by inter-arterial infusion of a solution containing 1 mg crystalline cytochalasin B in […] vehicle (Hanks sterile salt solution with 0.5% Cremophor) or a diluent (saline) control. Animals were sacrificed immediately after infusion, and 2, 4, 7 and 14 days post-trauma and infusion. Post-sacrifice, the left and the right (control) carotid arteries were removed. Samples of arteries were obtained for quantitation of ^3H-cytochalasin B by oxidation and scintillation counting, histopathology, autoradiography and vascular morphometry. Histopathology documented uniform, circumferential balloon trauma in the arterial wall of the left carotid arteries.

[2] = Seven day intravenous toxicity study; format: in vivo, beagle dogs; details: seven consecutive days, 10080 min
[3] = Chronic (seven days) intravenous toxicity study; format: in vivo, Sprauge-Dawley rats; details: 10080 min
Method: To determine the toxicity of chronic cytochalasin B administration, cytochalasin B was administered intravenously to Sprauge-Dawley rats for seven days (Table 12). Data regarding food consumption, body weights, hematology parameters, clinical chemistry parameters, coagulation profiles, organ weights, clinical observations, gross necropsy findings and histopathology were collected. […]

swine coronary arteries = test: Swine Coronary Artery Study: MIC catheter infusion after embolectomy or over-sized PTCA balloon trauma, morphometry at 4 weeks; format: in vivo
Method: Swine coronary arteries were also traumatized by embolectomy or over-sized PTCA balloon, and then 8-16 ml of cytochalasin B at 8.0 µg/ml was infused into the arterial wall with a MIC catheter to achieve a therapeutic dose. Controls included a diluent control and a traumatized untreated control, and all animals were sacrificed 4 weeks after intervention and coronary arteries were fixed by perfusion. Morphometry was performed on selected sections from proximal, treated and distal segments of coronary arteries (Table 15).
The diameter of, or the area within, the EEL of the artery can be compared to controls as an indicator of the degree of vascular remodeling. The lack of a statistically significant increase in luminal area may be due to increased sample variablility, increased neointimal formation, and/or increased degree of trauma.

[4] = 7 day intravenous toxicity study; format: in vivo, rats; details: 10 µg/ml four times a day for 7 days (800 µg/kg daily)
Method: To determine the metabolism of ^3H-cytochalasin B in human blood, ^3H-cytochalasin B (8 µg/ml) was dissolved in saline; 1:1 dilution of saline and human plasma; or 1:1 dilution of saline and human whole blood. […] Toxicity Studies. To determine the toxicity of cytochalasin B, rats (4 male and 4 female) were injected with 10 µg/ml cytochalasin B four times a day for 7 days (Table 11). Data regarding body weight changes, food consumption, food efficiency, hematology parameters, coagulation parameters, serum chemistry parameters, and gross necropsy findings were collected. […] There were no gross or microscopic changes detected in the heart to account for the elevation. Thus, daily administration of cytochalasin B to rats at a dose of 800 µg/kg (for a total injected dose of 5600 µg/kg) may have an effect on heart weight of female (but not male) rats. However, clotted blood was not routinely removed from the heart lumens prior to weighing the heart.

[5] = 7-day Recovery Post Exposure, 1.0 µg/mL
[6] = 8.0 µg/ml infused with MIC catheter after embolectomy or over-sized PTCA balloon trauma, sacrificed 4 weeks after intervention, mean
[7] = 8-16 ml at 8.0 µg/ml, 4 weeks after intervention

## C=C1[C@@H](C)[C@H]2[C@H](Cc3ccccc3)NC(=O)[C@]23OC(=O)/C=C/[C@H](O)CCC[C@@H](C)C/C=C/[C@H]3[C@@H]1O [cytochalasin B]
[1]; [5]
  Migration Grade in an Undisturbed Region of the Well: +3
  Migration Grade in the Cleared Area of the Well: +2
[1]; Continuous Exposure, 0.1 µg/mL
  morphological Toxicity Grade: +1
[1]; Continuous Exposure, 1.0 µg/mL
  Migration Grade in an Undisturbed Region of the Well: +2
  Migration Grade in the Cleared Area of the Well: -
  morphological Toxicity Grade: +3
Left carotid artery; crystalline, inter-arterial infusion
  neointima formation compared to diluent treated rats: no statistically significant reduction in neointima formation
Left carotid artery; day 0
  present over the treated length of artery: approximately 8 ug
Left carotid artery; day 2
  present over the treated length of artery: less than 2 ng
[2]
  dose without any indication of adverse effects or toxicity: up to 648 µg/kg/day
[3]
  dose without any indication of adverse effects or toxicity: up to 600 µg/kg/day
Swine coronary arteries; [6]
  Neointimal Area: 1.56
  luminal area: 0.58
Swine coronary arteries; [7]
  arterial area bounded by the external elastic lamina: trend toward beneficial arterial remodeling
  luminal area: did not result in a statistically significant increase in luminal area
Swine coronary arteries; area bounded by external elastic lamina, 8.0 µg/ml infused with MIC catheter, sacrificed 4 weeks after intervention, mean
  Arterial Area: 1.80
[4]
  only parameter which suggested an adverse effect: elevation of the mean relative heart weight in treated female animals
